According to the METLIN SMRT retention time set (Domingo-Almenara et al. 2019):

Assay: gradient 5% acetonitrile 3 min, to 50% in 2 min, to 85% in 15 min, held 3 min, 100 µL/min
Settings: column: Zorbax Extend-C18 2.1 x 50 mm; eluents: water / acetonitrile, 0.1% formic acid
Outline: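 The mobile phases were water and acetonitrile, each with 0.1% formic acid, pumped at 100 μL/min through a Zorbax Extend-C18 column (2.1 × 50 mm, 1.8 μm). Pure standards were injected as mixtures of ~100 molecules and detected by a quadrupole time-of-flight mass spectrometer in positive and negative ionization mode. Retention time came from computationally picked adduct peaks, each inspected by hand.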

SMILES | RP-LC retention time [s]
O=c1c2nnc3c(-c4ccc(F)cc4)cnn3c2ccn1CCc1c[nH]c2ccc(F)cc12 | 950
O=C(C1CCN(c2cnn(Cc3ccccc3)c(=O)c2)CC1)N1CCSCC1 | 648
Cc1sc2ccn(C)c(=O)c2c1C(=O)NC(C)c1ccc(F)cc1 (stereo not given) | 779
CCCn1cc(CCNC(=O)c2ccc(C)cc2C)c2cccnc21 | 799
O=C(O)c1cnc(NCc2cccnc2)nc1-c1cccnc1 | 875
O=C(Cn1ccc2sccc2c1=O)NCc1ccccc1F | 785
COCCN1C(=O)CCc2cc(NS(=O)(=O)c3cccc(F)c3)ccc21 | 748
CCNC(=O)CC1=C2CCCCC2NC1=O (stereo not given) | 592
O=C(NCc1cccc(Cl)c1)C1CCN(C(=O)c2ncn3c2COC(c2ccccc2)C3)CC1 (stereo not given) | 760
CCC(=O)Nc1ccc(-n2cnc(C(=O)NC(C)c3ccc(C)cc3)c2)nc1 (stereo not given) | 781
CCC(=O)NCc1nc2c(n1C)CN(S(=O)(=O)c1cccc(F)c1)CC2 | 558
CCCN(CC1CCOC1)C(=O)Nc1ccc(C(F)(F)F)cc1 (stereo not given) | 908
COc1ccc(-c2ncccc2CNS(=O)(=O)c2ccc(Br)cc2)cc1 | 733
Cc1cccc(NC(=O)Cn2nc(N3CCCC(C)C3)c3ccccc3c2=O)c1C (stereo not given) | 1120
O=C(Cn1c(=O)n(-c2ccccc2)c2ncccc21)NCCCN1CCCC1 | 586
O=C(c1csc(N2CCN(c3ccc(F)cc3)CC2)n1)N1CCOCC1 | 954
Cc1ccc(-c2nnc(-c3cccc(S(=O)(=O)NC(C)(C)CO)c3)o2)cc1 | 955
O=C(CCn1nnc2ccccc2c1=O)NCCn1ncccc1=O | 584
Cc1nc(-c2ccncc2)nc2c1CCC(=O)N2Cc1ccncc1 | 540
Cc1cccc(NC(=O)CN2c3ccccc3NC3=C(C(=O)CCC3)C2c2ccco2)c1C (stereo not given) | 851
CS(=O)(=O)N[C@H]1C[C@@H]2C[C@H]1CN2C(=O)c1ccc(C(F)(F)F)s1 | 663
O=C(CCCc1ccccc1)Nc1cccn2c(C3CCC3)nnc12 | 901
Cc1ccccc1CSc1ncnc2nc[nH]c12 | 744
CCOc1ccc2ncc(C#N)c(NCc3ccccc3)c2c1 | 634
Cc1ccc(C)c(S(=O)(=O)N2CCc3c(c(-c4nnc(-c5ccc(F)cc5)o4)nn3C)C2)c1 | 1040
Cc1cccc(C)c1Nc1c(-c2ccc(N3CCOCC3)cc2)nc2ncccn12 | 721

SMILES | RP-LC retention time [s]
COc1ccccc1CNC(=O)Cn1c(=O)c2cc(-c3ccco3)nn2c2ncccc21 | 797
CCS(=O)(=O)c1nc2ccc(NS(=O)(=O)c3ccccc3)cc2s1 | 838
Cc1nc(-n2cccc2)sc1C(=O)Nc1ccc(-c2cn3c(n2)SCC3)cc1 | 627
COc1ccccc1N1CCN(c2ncc3c(n2)CCN(Cc2cccc(F)c2)C3)CC1 | 808
O=C(CC(c1cccc(F)c1)n1cccc1)N1CCN(c2ccccn2)CC1 (stereo not given) | 686
Cn1c(=O)oc2cc(-c3noc(CNC(=O)C(c4ccccc4)c4ccccc4)n3)ccc21 | 928
O=C(Cn1c(=O)c2cc(C3CC3)nn2c2ncccc21)Nc1ccccc1 | 752
CCOc1ccc(-c2noc(CN3N=NC4C(=O)N(c5cccc(F)c5)C(=O)C43)n2)cc1OC (stereo not given) | 926
CSc1ccc(-c2nc3nc(C)cc(C)n3c2Nc2ccc(C(C)C)cc2)cc1 | 943
CC(C)c1ccc(Nc2c(-c3ccc(Cl)cc3)nc3cnccn23)cc1 | 1190
Cc1nnc(-c2cn(CC(=O)Nc3cccc(F)c3)c3ccccc23)o1 | 755
CCn1cnc(S(=O)(=O)N2CCC(C(=O)N3CCN(c4ccccc4F)CC3)CC2)c1 | 762
CC(Oc1ccccc1)C(=O)N1CC(n2ccnc2)C1 (stereo not given) | 584
O=c1ccc(-c2ccc(F)cc2)nn1CCc1nc(-c2ccc(F)c(Br)c2)no1 | 1120
O=C(Cn1cnc2nc(N3CCCC(C(=O)NC4CC4)C3)sc2c1=O)Nc1cc(F)ccc1F (stereo not given) | 693
CCCn1cnc2c(-c3ccccc3)csc2c1=O | 922
COC(=O)c1ccccc1NC(=O)NCc1ccccc1 | 855
Cc1ccccc1C(=O)Nc1ccccc1NC(=O)C1CCC1 | 795
CCCn1c(=O)c(C)nc2cc(-c3noc(-c4cccs4)n3)ccc21 | 1120
O=C(NCC(O)c1ccsc1)NC1CCCCC1 (stereo not given) | 658
CCN(Cc1ccccc1)c1ncc(NC(=O)c2ccccc2Cl)cc1C(=O)O | 723
COCc1c(C(=O)O)nnn1-c1ccc(C(C)C)cc1 | 825
Cc1ccc(-n2ccc(=O)c(-c3nc(-c4ccccc4C)no3)n2)cc1C | 1060
CCOc1ccc(NC(=O)NCC(c2cccnc2)c2cn(C)c3ccccc23)cc1 (stereo not given) | 703
Cc1nc(-c2cnccn2)nc2c1CCC(=O)N2CC1CCCO1 (stereo not given) | 626
Cn1nc(C(=O)Nc2ccccc2)c2c1CCN(C(=O)NCc1ccco1)C2 | 760

Second part, the molecule after the results:

RP-LC retention time [s] | SMILES
950 | CCC(C(=O)N1CCOc2ccc(C)cc21)n1cnc2nc3c(cc2c1=O)CCCC3 (stereo not given)
795 | COCCN1C(=O)CCc2cc(NS(=O)(=O)c3c(C)cccc3Cl)ccc21
935 | CC1=NS(=O)(=O)N(C)C=C1C(=O)OCc1cc(F)ccc1F
626 | O=C(c1ccc2nc[nH]c2c1)N1CCC(c2nc(-c3ccccc3)no2)C1 (stereo not given)
709 | COc1ccc(C2(C(=O)N3CCc4nn(CC5CC5)c(=O)n4CC3)CC2)cc1
849 | O=C(NCc1cccs1)c1nnc(-c2ccc(S(=O)(=O)N3CCCC3)cc2)o1
861 | CCc1nnc(-c2cc(C)n(CC(=O)Nc3ccc(F)c(Cl)c3)c2C)o1
844 | COCc1cc(=O)n(CC(=O)Nc2cc(C)ccc2C)c(N2CCOCC2)n1
1130 | CCOc1ccc(NC(=O)c2cc(C)n3nc(-c4ccco4)cc3n2)cc1
899 | CC(Oc1ccccc1)c1nc(-c2ccc3c(c2)nnn3CCC(=O)N2CCCC2)no1 (stereo not given)
845 | O=C(Nc1ccc2c(c1)OCCO2)c1cccc(-c2cnc(N3CCCC3)nc2)c1
640 | Cc1ccsc1C(=O)Nc1cccc(-c2nnc3n2CCCC3)c1
1010 | COc1ccc(Cl)cc1C(=O)NC1(c2nc(C)no2)CCCCC1
669 | COc1ccc(C2Cn3cnc(C(=O)N4CCC(C(=O)NC(C)C)CC4)c3CO2)cc1 (stereo not given)
650 | CCOc1nccnc1N1CCC(NC(=O)c2ccc(C#N)cc2)C1 (stereo not given)
649 | CCN1c2cc(C(N)=O)ccc2C(=O)N2CCCCCC21 (stereo not given)
907 | O=C(c1ccsc1)N1CCCC1c1nc(-c2ccc(F)cc2F)no1 (stereo not given)
822 | CN(CC(=O)N1CCN(c2cccc(Cl)c2)CC1)S(=O)(=O)c1ccc2c(c1)CCCC(=O)N2
991 | O=C(NC1CCCCCCC1)c1nnc(-c2ccc(S(=O)(=O)N3CCOCC3)cc2)o1

RP-LC retention time [s] | SMILES
1110 | CCOc1ccc(-c2noc(CN3C(=O)COc4cc(C)ccc43)n2)cc1
814 | CCn1ccc2sc(C)c(C(=O)NCc3cccc(OC)c3OC)c2c1=O
915 | CN1CCCc2cc(C(=O)NCc3ccccc3F)sc21
773 | O=C1NC2(CCN(C(=O)NCCc3ccccc3)CC2)Nc2c(Cl)cccc21
999 | COC(=O)c1cccc(C(=O)Nc2cc(Cl)ccc2C)n1
945 | O=C(c1ccsc1)N1CCCn2nc(-c3ccc(Cl)cc3)cc2C1
704 | Cc1ccc(-c2n[nH]c(CCNC(=O)c3ccc(S(=O)(=O)N4CCOCC4)cc3)n2)cc1
743 | COc1ccc2nc(NC3=NCN(CCc4cccs4)CN3)nc(C)c2c1
874 | COC(=O)N1CCc2ccc(F)cc2C1C(=O)Nc1ccc(OC)c(Cl)c1 (stereo not given)
636 | CS(=O)(=O)c1ccc(Nc2nc(C(=O)NCC3CCCO3)cs2)cc1 (stereo not given)
706 | COc1ccc(OC)c(NC(=O)NCCc2nc3cccnc3n2C2CCCC2)c1
900 | CC(C)(C)c1nnc(-c2ccc3c(c2)OCO3)o1
886 | Cc1cccc(CN2C(=O)CN(S(C)(=O)=O)CC2(C)C(=O)NCc2ccc(Cl)cc2)c1 (stereo not given)
731 | CCN1C(=O)C2(CCN(S(=O)(=O)c3c(C)noc3C)CC2)c2ccccc21
962 | CN(CCc1noc(COc2ccc(F)cc2)n1)C(=O)Nc1ccccc1Cl
1060 | Cc1ccc(-c2csc(NC(=O)c3ccc4c(c3)OCO4)n2)cc1
917 | O=C(Cn1cnc(-c2noc(-c3ccc(F)cc3)n2)c1)NCc1ccc(Cl)cc1
695 | COc1ccc(N2C=C(C(=O)N3CCOCC3)S(=O)(=O)c3ccccc32)cc1OC
980 | COc1nn(C)cc1C(=O)Nc1cc(C(F)(F)F)ccc1Cl
